Reference: patent US10065950B2, “Substituted thiazoles as HIV integrase inhibitors” (Japan Tobacco Inc., priority 2010, dated 2018)

Each compound was assayed against HIV-1 pNL4-3 integrase (Human immunodeficiency virus type 1 group M subtype B (isolate NY5) (HIV-1), UniProt P12497) (assay: Determination of enzyme (HIV integrase) inhibitory activity). Conditions: calculated from inhibition rate (fluorescence).
Format: biochemical
Protocol: The following explains evaluation methods of the HIV integrase inhibitory activity of the compound of the present invention.
A full-length gene sequence (Accession No.: M19921) of HIV-1 pNL4-3 integrase was inserted into restriction enzyme Nde I and Xho I sites of plasmid pET21a(+) (manufactured by Novagen) to construct an integrase expression vector pET21a-IN-Wild type.
Escherichia coli recombinant BL21(DE3) transformed with plasmid pET21a-IN-Wild type obtained in (i) was shake cultured at 30° C. in a liquid medium containing ampicillin. When the culture reached the logarithmic growth phase, isopropyl-β-D-thiogalactopyranoside was added to promote expression of integrase gene. The culture was continued for 5 hr to promote accumulation of the integrase protein. The recombinant E. coli was collected in pellets by centrifugal separation and preserved at −80° C.
This Escherichia coli was suspended in Lysis buffer (50 mM Tris-HCl (pH 7.6), 10 mM MgCl2, 5 mM DTT), and disrupted by repeating treatments of pressurization and depressurization, and insoluble fraction was collected by centrifugation at 4° C., 18,000 rpm for 60 min. This was suspended in Lysis buffer containing a protease inhibitor, […] and 10 mM CHAPS were added, and the mixture was stirred at 4° C. for 30 min. Water-soluble fraction was collected by centrifugation at 4° C., 9,000 rpm for 30 min. The obtained fraction was diluted with a column buffer (50 mM Tris-HCl (pH 7.6), 1 mM DTT, 10% Glycerol, 10 mM CHAPS) to 5-fold, and the mixture was applied to heparin column (HiPrep 16/10 Heparin FF column: manufactured by GE Healthcare Bio-Sciences). Using a column buffer containing 1M NaCl, a protein was eluted with 0-1M NaCl concentration gradient, and an eluted fraction containing an integrase protein was collected. The obtained fraction was diluted 5-fold with a column buffer (50 mM Tris-HCl (pH 7.6), 1 mM DTT, 10% Glycerol, 10 mM CHAPS), and the mixture was applied to cation exchange column (Mono-S column: manufactured by GE Healthcare Bio-Sciences). Using a column buffer containing 1M NaCl, a protein was eluted with 0-1M NaCl concentration gradient, and an eluted fraction containing an integrase protein was collected. The obtained fractions of the integrase protein were collected, and preserved at −80° C.
The following DNA synthesized by FASMAC was dissolved in TE buffer (10 mM Tris-hydrochloric acid (pH 8.0), 1 mM EDTA) and mixed with donor DNA, target DNA, and each complementary strand (+ and − strands) to 1 μM. The mixture was heated at 95° C. for 5 min, 80° C. for 10 min, 70° C. for 10 min, 60° C. for 10 min, 50° C. for 10 min and 40° C. for 10 min and kept at 25° C. to give a double stranded DNA, which was used for the test.
Donor DNA (+strand having biotin attached to the 5′ terminal)
Target DNA (+, − strands both having digoxigenin attached to the 3′ terminal)
The donor DNA was diluted with TE buffer to 20 nM, of which 50 μL was added to each well of streptavidin-coated black plate (manufactured by PIAS Corporation) and allowed to adsorb at 37° C. for 20 min. The plate was washed with phosphate buffer (Dulbecco's PBS, Sanko Junyaku Co., Ltd.) containing 0.1% Tween 20 and phosphate buffer. Then, an enzyme reaction mixture (70 μL), a test substance (10 μL) diluted with the enzyme reaction mixture and 0.75 μM integrase protein (10 μL) were added to each well and the mixture was reacted at 37° C. for 60 min. composition of enzyme reaction mixture: 30 mM MOPS (3-morpholinopropanesulfonic acid), 5 mM magnesium chloride, 3 mM DTT (dithiothreitol), 0.1 mg/mL BSA (bovine serum albumin), 5% glycerol, 10% DMSO (dimethyl sulfoxide), 0.01% Tween 20.
Then, 25 nM target DNA (10 μL) was added, and the mixture was reacted at 37° C. for 20 min and washed with phosphate buffer containing 0.1% Tween 20 to stop the reaction. […]

In order of rising IC50:
1. CC(C)N1C(=O)c2c(O)c(=O)c(-c3nnc(Cc4ccc(F)cc4F)s3)cn2C[C@H]1C [Example 156]  4.6 nM
2. CC(=O)CC1CN(C(C)C)C(=O)c2c(O)c(=O)c(-c3ncc(Cc4ccc(F)cc4F)s3)cn21 (stereo not drawn) [Example 151]  5.4 nM
3. CC(C)N1C(=O)c2c(O)c(=O)c(-c3nnc(Cc4ccc(F)cc4F)s3)cn2C[C@H]1CNS(C)(=O)=O [Example 158]  5.4 nM
4. CCC(C)N1C(=O)c2c(O)c(=O)c(-c3nnc(Cc4ccc(F)cc4F)s3)cn2C[C@H]1COC (stereo partly drawn) [Example 145]  5.6 nM
5. CC(=O)NC[C@H]1Cn2cc(-c3nnc(Cc4ccc(F)cc4F)s3)c(=O)c(O)c2C(=O)N1C(C)C [Example 140]  5.8 nM
6. CCNC(=O)C1(C)CN(C)C(=O)c2c(O)c(=O)c(-c3ncc(Cc4ccc(F)cc4F)s3)cn21 (stereo not drawn) [Example 153]  5.8 nM
7. COC[C@@H]1Cn2cc(-c3ncc(Cc4ccc(F)cc4F)s3)c(=O)c(O)c2C(=O)N1C(C)C [Example 168]  5.8 nM
8. CCC(C)N1C(=O)c2c(O)c(=O)c(-c3nnc(Cc4ccc(F)cc4F)s3)cn2C[C@H]1COC (stereo partly drawn) [Example 146]  5.9 nM
9. CC(C)N1C[C@H](C)n2cc(-c3nnc(Cc4ccc(F)cc4F)s3)c(=O)c(O)c2C1=O [Example 149]  5.9 nM
10. CC(C)N1CC(C)(C(=O)N(C)C)n2cc(-c3ncc(Cc4ccc(F)cc4F)s3)c(=O)c(O)c2C1=O (stereo not drawn) [Example 152]  5.9 nM
11. COC[C@@H]1Cn2cc(-c3nnc(Cc4ccc(F)c(F)c4)s3)c(=O)c(O)c2C(=O)N1C(C)C [Example 150]  6.1 nM
12. CNC(=O)C1CN(C)C(=O)c2c(O)c(=O)c(-c3ncc(Cc4ccc(F)cc4F)s3)cn21 (stereo not drawn) [Example 160]  6.1 nM
13. CCOC[C@H]1CN(C(C)C)C(=O)c2c(O)c(=O)c(-c3nnc(Cc4ccc(F)cc4F)s3)cn21 [Example 142]  6.4 nM
14. CN(C)C(=O)CC1CN(C2CC2)C(=O)c2c(O)c(=O)c(-c3ncc(Cc4ccc(F)cc4F)s3)cn21 (stereo not drawn) [Example 164]  6.5 nM
15. CC(C)C(=O)N(C)C[C@@H]1Cn2cc(-c3nnc(Cc4ccc(F)cc4F)s3)c(=O)c(O)c2C(=O)N1C(C)C [Example 159]  6.6 nM
16. CCOCCOC[C@H]1CN(C(C)C)C(=O)c2c(O)c(=O)c(-c3nnc(Cc4ccc(F)cc4F)s3)cn21 [Example 143]  6.9 nM
17. CCNC(=O)C1(C)CN(CC)C(=O)c2c(O)c(=O)c(-c3ncc(Cc4ccc(F)cc4F)s3)cn21 (stereo not drawn) [Example 162]  7.1 nM
18. COC[C@@H]1Cn2cc(-c3nnc(Cc4ccc(F)cc4F)s3)c(=O)c(O)c2C(=O)N1CC1CC1 [Example 126]  7.3 nM
19. CC(C)N1C(=O)c2c(O)c(=O)c(-c3nnc(Cc4ccc(F)cc4F)s3)cn2C[C@H]1CN(C)S(C)(=O)=O [Example 154]  7.3 nM
20. CC(C)N1C(=O)c2c(O)c(=O)c(-c3nnc(Cc4ccc(F)cc4F)s3)cn2C[C@H]1CO [Example 133]  7.4 nM
21. CCNC(=O)CC1CN(C2CC2)C(=O)c2c(O)c(=O)c(-c3ncc(Cc4ccc(F)cc4F)s3)cn21 (stereo not drawn) [Example 165]  7.4 nM
22. COC[C@H]1CN(C(C)C)C(=O)c2c(O)c(=O)c(-c3nnc(Cc4ccc(F)c(F)c4)s3)cn21 [Example 144]  7.7 nM
23. CC(=O)N(C)C[C@@H]1Cn2cc(-c3nnc(Cc4ccc(F)cc4)s3)c(=O)c(O)c2C(=O)N1C(C)C [Example 163]  7.7 nM
24. CCN(C)C(=O)C1(C)CN(C)C(=O)c2c(O)c(=O)c(-c3ncc(Cc4ccc(F)cc4F)s3)cn21 (stereo not drawn) [Example 161]  7.8 nM
25. CCOC[C@H]1CN(C(C)C)C(=O)c2c(O)c(=O)c(-c3ncc(Cc4ccc(F)cc4)s3)cn21 [Example 141]  8 nM
26. CC[C@@H](C)N1C[C@H](COC)n2cc(-c3nnc(Cc4ccc(F)cc4F)s3)c(=O)c(O)c2C1=O [Example 147]  8.3 nM
27. CC(=O)NC[C@@H]1Cn2cc(-c3nnc(Cc4ccc(F)cc4F)s3)c(=O)c(O)c2C(=O)N1C(C)C [Example 137]  8.6 nM
28. CC(C)N1C[C@@H](C)n2cc(-c3nnc(Cc4ccc(F)cc4F)s3)c(=O)c(O)c2C1=O [Example 132]  9.1 nM
29. COC[C@H]1CN([C@H](C)C(C)C)C(=O)c2c(O)c(=O)c(-c3nnc(Cc4ccc(F)cc4F)s3)cn21 [Example 148]  9.8 nM
30. COCCOC[C@H]1CN(C(C)C)C(=O)c2c(O)c(=O)c(-c3nnc(Cc4ccc(F)c(F)c4)s3)cn21 [Example 155]  10 nM
31. CC[C@@H](C)N1C[C@@H](COC)n2cc(-c3nnc(Cc4ccc(F)cc4)s3)c(=O)c(O)c2C1=O [Example 167]  10 nM
32. CCN1C[C@H](COCCOC)n2cc(-c3nnc(Cc4ccc(F)cc4F)s3)c(=O)c(O)c2C1=O [Example 125]  11 nM
33. COC[C@H]1CN([C@@H](C)C(C)C)C(=O)c2c(O)c(=O)c(-c3nnc(Cc4ccc(F)cc4F)s3)cn21 [Example 136]  11 nM
34. CC(C)N1C(=O)c2c(O)c(=O)c(-c3nnc(Cc4ccc(F)cc4F)s3)cn2C[C@H]1CNC(=O)C(C)(C)C [Example 138]  11 nM
35. COCCOC[C@@H]1Cn2cc(-c3nnc(Cc4ccc(F)cc4F)s3)c(=O)c(O)c2C(=O)N1CC(C)(C)C [Example 129]  12 nM
36. CC[C@H](C)N1C[C@H](COC)n2cc(-c3nnc(Cc4ccc(F)cc4F)s3)c(=O)c(O)c2C1=O [Example 135]  12 nM
37. CC(=O)N(C)CC1(C)CN(C(C)C)C(=O)c2c(O)c(=O)c(-c3ncc(Cc4ccc(F)cc4F)s3)cn21 (stereo not drawn) [Example 139]  12 nM
38. CC[C@H](C)N1C[C@@H](COC)n2cc(-c3nnc(Cc4ccc(F)cc4)s3)c(=O)c(O)c2C1=O [Example 166]  12 nM
39. CC(C)N1C[C@](C)(C(=O)N(C)C)n2cc(-c3nnc(Cc4ccc(F)cc4F)s3)c(=O)c(O)c2C1=O [Example 169]  12 nM
40. CC(C)N1C[C@](C)(C(=O)N2CCCC2)n2cc(-c3nnc(Cc4ccc(F)cc4F)s3)c(=O)c(O)c2C1=O [Example 170]  12 nM
41. CCN1C(=O)c2c(O)c(=O)c(-c3nnc(Cc4ccc(F)cc4F)s3)cn2C[C@@H]1COCCOC [Example 130]  13 nM
42. COC[C@H]1CN(C(C)(C)C)C(=O)c2c(O)c(=O)c(-c3nnc(Cc4ccc(F)cc4F)s3)cn21 [Example 131]  13 nM
43. CCN1C[C@@H](COCCOC)n2cc(-c3nnc(Cc4ccc(F)cc4F)s3)c(=O)c(O)c2C1=O [Example 127]  14 nM
44. COCCOC[C@H]1CN(CC(C)(C)C)C(=O)c2c(O)c(=O)c(-c3nnc(Cc4ccc(F)cc4F)s3)cn21 [Example 124]  15 nM
45. COCC1(C)CN(C(C)C)C(=O)c2c(O)c(=O)c(-c3ncc(Cc4ccc(F)cc4F)s3)cn21 (stereo not drawn) [Example 121]  16 nM
46. COCCOC[C@H]1CN(C(C)C)C(=O)c2c(O)c(=O)c(-c3nnc(Cc4ccc(F)cc4F)s3)cn21 [Example 134]  16 nM
47. CC(C)N1C[C@@](C)(C(=O)N(C)C)n2cc(-c3nnc(Cc4ccc(F)cc4F)s3)c(=O)c(O)c2C1=O [Example 171]  16 nM
48. COCCOCC1(C)CN(C(C)C)C(=O)c2c(O)c(=O)c(-c3ncc(Cc4ccc(F)cc4F)s3)cn21 (stereo not drawn) [Example 122]  19 nM
49. CCN1C[C@@H](COCCOC)n2cc(-c3nnc(Cc4ccc(F)cc4)s3)c(=O)c(O)c2C1=O [Example 128]  19 nM
50. COCCOC[C@H]1CN(CC(C)(C)C)C(=O)c2c(O)c(=O)c(-c3nnc(Cc4ccc(F)cc4)s3)cn21 [Example 123]  27 nM
51. CC(C)N1CC(C)(C(=O)N(C)C)n2cc(-c3nnc(Cc4ccc(F)c(F)c4)s3)c(=O)c(O)c2C1=O (stereo not drawn) [Example 157]  29 nM
